Activity, Kd and ΔTm data for 55 compounds are collected here from ChEMBL document CHEMBL3232949, “Rapid identification of Keap1-Nrf2 small-molecule inhibitors through structure-based virtual screening and hit-based substructure search” (J Med Chem, 2014).

Structures are written as SMILES. The source made the active and inactive calls. The calls are words filed in the database; no cut-off is given here.

Chain of Kelch-like ECH-associated protein 1 (Homo sapiens) (Q14145 whole entry): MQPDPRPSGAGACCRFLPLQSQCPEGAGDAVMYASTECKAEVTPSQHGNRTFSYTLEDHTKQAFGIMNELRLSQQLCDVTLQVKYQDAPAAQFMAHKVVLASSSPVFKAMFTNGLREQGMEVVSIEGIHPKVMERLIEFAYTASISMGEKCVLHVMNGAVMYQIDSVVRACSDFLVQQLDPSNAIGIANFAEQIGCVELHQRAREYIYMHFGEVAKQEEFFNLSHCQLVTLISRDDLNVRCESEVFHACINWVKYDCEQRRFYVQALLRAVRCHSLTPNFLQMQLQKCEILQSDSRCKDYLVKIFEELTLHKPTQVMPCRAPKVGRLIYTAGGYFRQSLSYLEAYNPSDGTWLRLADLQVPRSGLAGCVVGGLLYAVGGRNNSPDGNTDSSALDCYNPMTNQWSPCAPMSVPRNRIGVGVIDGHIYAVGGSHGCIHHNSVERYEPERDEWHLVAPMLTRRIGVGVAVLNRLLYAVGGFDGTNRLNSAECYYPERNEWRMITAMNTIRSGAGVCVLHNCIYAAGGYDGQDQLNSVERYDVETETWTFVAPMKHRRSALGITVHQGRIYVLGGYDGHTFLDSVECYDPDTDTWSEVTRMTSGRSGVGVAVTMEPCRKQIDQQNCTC

The first experiment has as its target T1, Nuclear factor erythroid 2-related factor 2 (Rattus norvegicus) (UniProt O54968).
T1 sequence (whole entry): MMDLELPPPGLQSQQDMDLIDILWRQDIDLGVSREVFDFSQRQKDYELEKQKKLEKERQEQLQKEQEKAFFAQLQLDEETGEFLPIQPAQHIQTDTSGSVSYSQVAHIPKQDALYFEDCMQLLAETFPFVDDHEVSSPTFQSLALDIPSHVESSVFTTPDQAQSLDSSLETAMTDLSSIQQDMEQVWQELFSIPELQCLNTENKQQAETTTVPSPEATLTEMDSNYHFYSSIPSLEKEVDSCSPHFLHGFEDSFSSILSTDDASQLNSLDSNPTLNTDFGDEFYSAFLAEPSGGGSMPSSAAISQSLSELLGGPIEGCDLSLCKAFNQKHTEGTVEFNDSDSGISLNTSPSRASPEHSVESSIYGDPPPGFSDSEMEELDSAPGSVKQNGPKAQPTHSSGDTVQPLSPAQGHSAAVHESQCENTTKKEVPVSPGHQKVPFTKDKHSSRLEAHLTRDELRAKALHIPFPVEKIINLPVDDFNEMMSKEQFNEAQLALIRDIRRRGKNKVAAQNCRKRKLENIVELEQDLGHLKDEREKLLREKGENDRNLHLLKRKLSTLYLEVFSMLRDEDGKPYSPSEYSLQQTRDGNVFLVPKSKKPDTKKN
The experiment in a line: Activation of Nrf2 in rat PC12 cells assessed as increase of HO-1 mRNA level at 1 to 4 uM by qRT-PCR analysis. Format: cell-based. The note with it: PC-12, TDE = time-dependent effect.
`CC(C)c1ccc(S(=O)(=O)Nc2cc(Sc3nc[nH]n3)c(O)c3ccccc23)cc1`: the Activity result is “tde”.

For the next experiment, the target named is Keap1/Nrf2 (Homo sapiens, UniProt Q14145). The experiment in a line: Inhibition of Keap1-Nrf2 (unknown origin) interaction assessed as compound's equilibrium dissociation constant after 60 mins by fluorescence anisotropy assay. It is filed as protein assay.
Chain of Keap1/Nrf2 (Q16236 whole entry): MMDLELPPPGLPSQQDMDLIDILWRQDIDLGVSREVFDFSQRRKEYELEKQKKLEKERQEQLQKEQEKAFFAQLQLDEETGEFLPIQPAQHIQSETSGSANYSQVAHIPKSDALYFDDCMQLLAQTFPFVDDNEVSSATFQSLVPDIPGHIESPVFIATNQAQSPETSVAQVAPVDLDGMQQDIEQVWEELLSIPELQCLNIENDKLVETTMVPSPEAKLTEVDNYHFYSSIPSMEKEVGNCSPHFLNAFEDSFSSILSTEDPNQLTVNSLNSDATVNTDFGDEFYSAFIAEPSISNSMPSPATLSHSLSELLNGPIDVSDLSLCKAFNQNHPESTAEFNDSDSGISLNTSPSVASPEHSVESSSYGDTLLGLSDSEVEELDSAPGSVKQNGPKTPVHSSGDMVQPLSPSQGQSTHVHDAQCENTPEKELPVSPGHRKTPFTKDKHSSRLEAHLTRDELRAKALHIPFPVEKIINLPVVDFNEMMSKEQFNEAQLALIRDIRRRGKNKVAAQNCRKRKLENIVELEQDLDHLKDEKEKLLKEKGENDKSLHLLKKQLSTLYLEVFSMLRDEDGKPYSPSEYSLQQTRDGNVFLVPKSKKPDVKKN
Chain of Keap1/Nrf2 (Q14145 whole entry): as the sequence (Q14145 whole entry) above
Conditions: not given
In general terms: Polarisation of emitted light reports the rotation of a fluorescent probe.
By Kd is commonly meant the concentration at which binding is half-saturated. As for `Cc1oc2c(cc(NS(=O)(=O)c3ccc(Cl)cc3)c3ccccc32)c1C(=O)O`, the equilibrium dissociation constant (Kd) amounted to 75.2 µM. For `CCOc1ccc(S(=O)(=O)Nc2cc(Sc3nc[nH]n3)c(O)c3ccccc23)cc1`, the Kd worked out at 3.1 µM.

`O=S(=O)(Nc1cc(Sc2nc[nH]n2)c(O)c2ccccc12)c1ccc(Br)cc1`: the dissociation constant Kd is 13.1 µM. `Cc1ccc(S(=O)(=O)Nc2cc(Sc3nc(C)cc(C)n3)c(O)c3ccccc23)cc1`: the dissociation constant Kd is more than 100 µM.

Turning to `O=C(CN1C(=O)S/C(=C\c2cccn2-c2cccc(C(=O)O)c2)C1=O)Nc1ccc(Cl)cc1`, the Kd is more than 100 µM. As for `CN1C(=O)S/C(=C\c2cccn2-c2cccc(C(=O)O)c2)C1=O`, the Kd was more than 100 µM. As to `O=C(O)CSc1cc(NS(=O)(=O)c2ccc(Cl)cc2)c2ccccc2c1O`, the Kd was found to be 15.3 µM. On to `COc1ccc(S(=O)(=O)Nc2cc(Sc3ccccc3)c(O)c3ccccc23)cc1`, for which the dissociation constant Kd is more than 100 µM.

On to `COc1ccc(S(=O)(=O)Nc2cc(Sc3nc[nH]n3)c(O)c3ccccc23)cc1`, for which the Kd came out at 6.8 µM. As to `O=C1NN(c2cccc(Cl)c2)C(=O)/C1=C\c1ccc(-c2ccc(Br)cc2C(=O)O)o1`, the equilibrium dissociation constant (Kd) came out at 39.5 µM. As for `O=C(CN1C(=O)S/C(=C\c2cccn2-c2ccc(O)cc2)C1=O)Nc1ccccc1F`, the Kd was more than 100 µM.

`O=C(O)CSc1cc(NS(=O)(=O)c2ccc(Br)cc2)c2ccccc2c1O`: the Kd is 14.7 µM. `NC(=O)c1ccc(-c2ccc(/C=C3/C(=O)NN(c4ccc(F)cc4)C3=O)o2)cc1`: the Kd is more than 100 µM. As for `Cc1ccc(S(=O)(=O)Nc2cc(SCC(=O)O)c(O)c3ccccc23)cc1`, the Kd turned out to be 15.4 µM. Consider `Cc1ccc(NC(=O)CN2C(=O)S/C(=C\c3cccn3-c3cccc(C(=O)O)c3)C2=O)c(C)c1`, for which the equilibrium dissociation constant (Kd) was 47.6 µM. `Cc1cc(C)c(S(=O)(=O)Nc2cc(Cl)c(O)c(Sc3nc[nH]n3)c2)cc1C`: the Kd stood at 20.9 µM. For `O=C1NN(c2cccc(F)c2)C(=O)/C1=C\c1ccc(-c2ccc(C(=O)O)cc2)o1`, the Kd was 77.8 µM. With `O=C(O)CSc1cc(NS(=O)(=O)c2cccs2)c2ccccc2c1O`, the dissociation constant (Kd) was 36.6 µM. For `CCOc1cc(/C=C2\N=C(c3ccccc3)OC2=O)cc(Br)c1OCC(=O)O`, the dissociation constant (Kd) was found to be 29.5 µM. Still for that read-out and setting: under `COc1ccc(-n2cccc2/C=C2\SC(=O)N(CC(=O)Nc3ccc(C)cc3)C2=O)cc1` stands more than 100 µM; under `Cc1ccc(N2NC(=O)/C(=C/c3ccc(-c4ccc(S(=O)(=O)Nc5nccs5)cc4)o3)C2=O)cc1`, more than 100 µM. With `CC(C)c1ccc(S(=O)(=O)Nc2cc(SCC(=O)O)c(O)c3ccccc23)cc1`, the dissociation constant (Kd) turned out to be 6.4 µM. Turning to `COC(=O)c1ccc(N2NC(=O)/C(=C/c3ccc(-c4ccc(S(N)(=O)=O)cc4)o3)C2=O)cc1`, the Kd was more than 100 µM. On to `O=S(=O)(Nc1cc(Sc2nnnn2-c2ccccc2)c(O)c2ccccc12)c1ccccc1`, for which the Kd came out at 55.5 µM.

With `Cc1ccc(/N=C2/S/C(=C\c3c(C)n(CC(=O)O)c4ccccc34)C(=O)N2C)cc1`, the Kd amounted to 35.4 µM.

For the compound `Cc1cc(C)c(S(=O)(=O)Nc2cc(SCC(=O)O)c(O)c3ccccc23)c(C)c1`, the Kd was 4.2 µM. Regarding `COc1ccc(-n2cccc2/C=C2\SC(=O)N(CC(=O)Nc3cccc(C)c3)C2=O)cc1`, the dissociation constant Kd is more than 100 µM.

Turning to `O=C(O)CSc1cc(NS(=O)(=O)c2ccc(F)cc2)c2ccccc2c1O`, the dissociation constant Kd came out at 30.2 µM.

`Cc1ccc(S(=O)(=O)Nc2cc(Sc3nc4ccccc4s3)c(O)c3ccccc23)cc1`: the Kd was more than 100 µM.

With `Cc1cc(C)c(S(=O)(=O)Nc2cc3sc(=O)oc3c3ccccc23)cc1C`, the Kd is more than 100 µM. For `Cc1cccc(N2NC(=O)/C(=C/c3ccc(-c4ccc(S(N)(=O)=O)cc4)o3)C2=O)c1`, the equilibrium dissociation constant (Kd) was more than 100 µM. In the case of `O=S(=O)(Nc1cc(Sc2nc[nH]n2)c(O)c2ccccc12)c1ccccc1`, the Kd was found to be 61.2 µM. On the same count and under the same terms, under `Cc1cccc(NC(=O)CN2C(=O)S/C(=C\c3cccn3-c3cccc(C(=O)O)c3)C2=O)c1` stands 68.2 µM.

For `O=C1NN(c2cccc(Cl)c2)C(=O)/C1=C\c1ccc(-c2cccc(C(=O)O)c2)o1`, the dissociation constant (Kd) was determined as 49.2 µM. As to `Cc1ccc(S(=O)(=O)Nc2cc(Sc3cccc4cccnc34)c(O)c3ccccc23)cc1`, the dissociation constant Kd is more than 100 µM. In the case of `Cc1ccccc1NC(=O)CN1C(=O)S/C(=C\c2cccn2-c2cccc(C(=O)O)c2)C1=O`, the Kd turned out to be 10.4 µM. As for `O=C(O)CSc1cc(NS(=O)(=O)c2ccc3ccccc3c2)c2ccccc2c1O`, the dissociation constant Kd stood at 7.8 µM. With `O=C1NN(c2ccccc2)C(=O)/C1=C\c1ccc(-c2ccc(C(=O)O)c(Cl)c2)o1`, the Kd is 42.9 µM.

Consider `COc1ccc(NC(=O)CN2C(=O)S/C(=C\c3cccn3-c3ccc(C(=O)O)cc3)C2=O)cc1`, for which the dissociation constant (Kd) was determined as 23.8 µM. Regarding `CC(=O)Oc1c(SCC(=O)O)cc(NS(=O)(=O)c2ccc(F)cc2)c2ccccc12`, the Kd is more than 100 µM. Take `Cc1ccc(NC(=O)CN2C(=O)S/C(=C\c3cccn3C)C2=O)c(C)c1`: the dissociation constant Kd was more than 100 µM.

For `Cc1ccc(S(=O)(=O)Nc2cc(SCc3ccccc3)c(O)c3ccccc23)cc1`, the Kd is more than 100 µM. In the case of `Cc1cc(F)ccc1S(=O)(=O)Nc1cc(SCC(=O)O)c(O)c2ccccc12`, the Kd came out at 12.2 µM. For the compound `O=C(CN1C(=O)S/C(=C\c2cccn2-c2cccc(C(=O)O)c2)C1=O)Nc1ccc(F)cc1`, the Kd is more than 100 µM. On the same count and under the same terms, the figure for `O=C(O)CSc1cc(NS(=O)(=O)c2cccc3cccnc23)c2ccccc2c1O` is 18.9 µM. Still for that read-out and setting: under `Cc1ccc(NC(=O)CN2C(=O)S/C(=C\c3cccn3-c3cccc(C(=O)O)c3)C2=O)cc1C` stands 28.9 µM; under `O=C1NN(c2cccc(Cl)c2)C(=O)/C1=C\c1ccc(-c2ccc(C(=O)O)c(Cl)c2)o1`, 15.2 µM.

`Cc1cc(C)c(S(=O)(=O)Nc2cc(Sc3nc[nH]n3)c(O)c3ccccc23)cc1C`: the Kd came out at 3.6 µM. As for `CC(C)(C)c1ccc(S(=O)(=O)Nc2cc(SCc3ccco3)c(O)c3ccccc23)cc1`, the dissociation constant Kd was more than 100 µM.

Take `O=C1NN(c2ccc(Br)cc2)C(=O)/C1=C\c1ccc(-c2ccccc2)o1`: the dissociation constant Kd was more than 100 µM. Consider `O=S(=O)(Nc1cc(Sc2nc[nH]n2)c(O)c2ccccc12)c1ccc2ccccc2c1`, for which the Kd worked out at 3.6 µM. For `Cc1ccc(S(=O)(=O)Nc2ccc(O)c(Sc3nc[nH]n3)c2)cc1`, the Kd was more than 100 µM. Turning to `Cc1cccc(C)c1NC(=O)CN1C(=O)S/C(=C\c2cccn2-c2cccc(C(=O)O)c2)C1=O`, the Kd is more than 100 µM.

The next experiment deals with T1, Nuclear factor erythroid 2-related factor 2 (Rattus norvegicus). Nature of the experiment: Activation of Nrf2 in rat PC12 cells assessed as increase of HO-1 mRNA level after 4.5 to 9 hrs by qRT-PCR analysis. Particulars: PC-12. It is filed as cell-based. Background: Real-time PCR tracks product formation cycle by cycle.
Consider `CC(C)c1ccc(S(=O)(=O)Nc2cc(Sc3nc[nH]n3)c(O)c3ccccc23)cc1`, for which the Activity result is “Dose-dependent effect”.

A further experiment shares this target. The experiment in a line: Activation of Nrf2 in rat PC12 cells assessed as increase of HO-1 mRNA level at 1 to 4 uM after 4.5 to 9 hrs by qRT-PCR analysis. It is filed as cell-based. The note with it: PC-12.
With `COc1ccc(S(=O)(=O)Nc2ccc(NS(=O)(=O)c3ccc(OC)cc3)c3ccccc23)cc1`, the outcome was inactive.

The target is the same in the next experiment. The experiment in a line: Activation of Nrf2 in rat PC12 cells assessed as increase of NQO-1 mRNA level at 1 to 4 uM after 4.5 to 9 hrs by qRT-PCR analysis. It is filed as cell-based. The note with it: PC-12.
As for `COc1ccc(S(=O)(=O)Nc2ccc(NS(=O)(=O)c3ccc(OC)cc3)c3ccccc23)cc1`, the result was inactive.

A further experiment has the same target. Nature of the experiment: Induction of nuclear translocation of Nrf2 in rat PC12 cells at 4 uM after 1.5 hrs by Western blot analysis. Format: cell-based. Particulars: PC-12. In general terms: Immunoblotting shows a protein as a band on a membrane.
In the case of `CC(C)c1ccc(S(=O)(=O)Nc2cc(Sc3nc[nH]n3)c(O)c3ccccc23)cc1`, the result was Active.

A further experiment has the same target. The experiment in a line: Induction of nuclear translocation of Nrf2 in rat PC12 cells at 4 uM after 4.5 hrs by Western blot analysis. Format: cell-based. Particulars: PC-12.
As to `CC(C)c1ccc(S(=O)(=O)Nc2cc(Sc3nc[nH]n3)c(O)c3ccccc23)cc1`, the result was inactive.

A further experiment has as its target Kelch-like ECH-associated protein 1 (Homo sapiens) (UniProt Q14145).
Conditions: not given
Usually ΔTm stands for the change in melting temperature against a reference sample. For the compound `CCOc1ccc(S(=O)(=O)Nc2cc(Sc3nc[nH]n3)c(O)c3ccccc23)cc1`, the thermal shift (ΔTm) was determined as 4 °C. In the case of `Cc1ccc(S(=O)(=O)Nc2cc(Sc3nc4ccccc4s3)c(O)c3ccccc23)cc1`, the thermal shift (ΔTm) is 1 °C. Same read-out and setting: the figure for `Cc1cc(C)c(S(=O)(=O)Nc2cc3sc(=O)oc3c3ccccc23)cc1C` is 1 °C. The same measure, in the same setting: the figure for `Cc1ccccc1NC(=O)CN1C(=O)S/C(=C\c2cccn2-c2cccc(C(=O)O)c2)C1=O` is 1 °C. On to `O=C1NN(c2cccc(Cl)c2)C(=O)/C1=C\c1ccc(-c2ccc(C(=O)O)c(Cl)c2)o1`, for which the shift in melting temperature (ΔTm) worked out at 2 °C. For `COc1ccc(S(=O)(=O)Nc2ccc(NS(=O)(=O)c3ccc(OC)cc3)c3ccccc23)cc1`, the ΔTm was 1 °C.
